#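 Briefly, cells in 96-well plates were exposed to five compound concentrations for 48 h, and endpoints were estimated by linear interpolation. Abbreviation: GI50, concentration required for 50% inhibition of growth.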 Active and inactive are the calls of the source. No stated cut-off is given here; in the data, active = GI50 up to about 1.1 µM and inactive = higher.
# How the values were obtained:
# Assay in all cases: inhibition of tumour cell growth, NCI panel, 48 h
# [1] = system: UACC-62
# [2] = system: NCI-H522
# [3] = system: HT-29
# [4] = system: CAKI-1
# [5] = system: CCRF-CEM
# [6] = system: SF-539
# [7] = system: MDA-MB-231
# [8] = system: MDA-MB-435
# [9] = system: SNB-19
# [10] = system: SK-OV-3
# [11] = system: SK-MEL-5
# [12] = system: RXF 393
# [13] = system: SF-268
# [14] = system: RPMI-8226
# [15] = system: HOP-92
# [16] = system: UO-31
# [17] = system: HCT-15
# [18] = system: HCT-116
# [19] = system: DMS-273
# [20] = system: DMS-114
SMILES,GI50 [1],GI50 [2],GI50 [3],GI50 [4],GI50 [5],GI50 [6],GI50 [7],GI50 [8],GI50 [9],GI50 [10],GI50 [11],GI50 [12],GI50 [13],GI50 [14],GI50 [15],GI50 [16],GI50 [17],GI50 [18],GI50 [19],GI50 [20]
FC(F)(F)c1cccc(-c2nc3nc(Cl)c(Cl)nc3[nH]2)c1,0.562 µM (active),0.764 µM (active),2.18 µM (inactive),2.73 µM (inactive),1.95 µM (inactive),3.15 µM (inactive),2.02 µM (inactive),2.52 µM (inactive),3.27 µM (inactive),2.86 µM (inactive),0.544 µM (active),3.1 µM (inactive),3.03 µM (inactive),0.426 µM (active),0.889 µM (active),2.24 µM (inactive),2.64 µM,2.09 µM (inactive),,
CCN(CC)c1ccc2cc(-c3nc4ccccc4n3C)c(=O)oc2c1,0.231 µM (active),0.205 µM (active),0.259 µM (active),0.288 µM (active),0.154 µM (active),0.222 µM (active),0.889 µM (active),0.0369 µM (active),0.408 µM (active),0.33 µM (active),0.0948 µM (active),1.74 µM (inactive),2.05 µM (inactive),0.33 µM (active),0.873 µM (active),3.52 µM (inactive),0.17 µM,0.204 µM (active),,
O=C1CNC(=O)c2[nH]cnc2N1,> 100 µM (inactive),,> 100 µM (inactive),,> 100 µM (inactive),> 100 µM (inactive),,,> 100 µM (inactive),> 100 µM (inactive),> 100 µM (inactive),> 100 µM (inactive),> 100 µM (inactive),> 100 µM (inactive),,> 100 µM (inactive),> 100 µM,,> 100 µM (inactive),> 100 µM (inactive)
CCOC(=O)C(Oc1ccc(OC)c2c1C(=O)CCC2)c1ccccc1 (stereo not given),69.3 µM (inactive),94 µM (inactive),53.1 µM (inactive),> 100 µM (inactive),65.5 µM (inactive),> 100 µM (inactive),,,> 100 µM (inactive),> 100 µM (inactive),43.2 µM (inactive),,> 100 µM (inactive),45.9 µM (inactive),,53.2 µM (inactive),> 100 µM,84.7 µM (inactive),98.9 µM (inactive),84.7 µM (inactive)
CN1C(c2ccccc2)CS(=O)(=O)CS1(=O)=O (stereo not given),> 100 µM (inactive),,> 100 µM (inactive),> 100 µM (inactive),,> 100 µM (inactive),,,> 100 µM (inactive),> 100 µM (inactive),> 100 µM (inactive),> 100 µM (inactive),> 100 µM (inactive),,,> 100 µM (inactive),> 100 µM,> 100 µM (inactive),> 100 µM (inactive),> 100 µM (inactive)
CCN(CC)CCCNc1nccc2c(C)c3c(cc12)c1cnccc1n3C,0.891 µM (active),,0.0101 µM (active),0.144 µM (active),< 0.01 µM (active),0.0173 µM (active),,,0.288 µM (active),0.377 µM (active),0.431 µM (active),,0.294 µM (active),,,0.748 µM (active),0.0468 µM,0.0564 µM (active),0.0353 µM (active),0.0501 µM (active)
C/C(CC(=O)Nc1cccc([N+](=O)[O-])c1)=N/NC(N)=S,> 100 µM (inactive),> 100 µM (inactive),> 100 µM (inactive),,> 100 µM (inactive),> 100 µM (inactive),,,,> 100 µM (inactive),> 100 µM (inactive),> 100 µM (inactive),> 100 µM (inactive),> 100 µM (inactive),> 100 µM (inactive),> 100 µM (inactive),,> 100 µM (inactive),,> 100 µM (inactive)
N#Cc1c(CC(=O)O)cc(=O)n2c1[nH]c1ccccc12,,,> 100 µM (inactive),> 100 µM (inactive),,> 100 µM (inactive),,,> 100 µM (inactive),> 100 µM (inactive),> 100 µM (inactive),> 100 µM (inactive),> 100 µM (inactive),> 100 µM (inactive),,> 100 µM (inactive),> 100 µM,> 100 µM (inactive),> 100 µM (inactive),> 100 µM (inactive)
COc1cc2c3cc1Oc1c(OC)c(OC)cc4c1C(Cc1ccc(O)c(c1)Oc1ccc(cc1)CC3N(C)CC2)CN(C)C4 (stereo not given),18.1 µM (inactive),12.5 µM (inactive),3.24 µM (inactive),20.2 µM (inactive),2.07 µM (inactive),12.9 µM (inactive),12.2 µM (inactive),11.5 µM (inactive),24.3 µM (inactive),23.4 µM (inactive),13.5 µM (inactive),10.6 µM (inactive),20.4 µM (inactive),13 µM (inactive),16 µM (inactive),16.1 µM (inactive),14 µM,6.05 µM (inactive),,
